This note sets out measurements from US8450266B2 (Ipsen Pharma S.A.S., priority 2008, dated 2013).

Where a SMILES comes first, the peptide text is derived from it. [ ]: non-standard residue; d: D form. The star is where a group is joined. Decanoyl = CCCCCCCCCC(=O)*; Ac6c = NC1(C(=O)O)CCCCC1; Orn = NCCC[C@H](N)C(=O)O; Hexanoyl = CCCCCC(=O)*

The nature of series [1]: Human plasma half-life assay (LC-MS). It counts as in vitro ADME. The settings on record: incubated at 37° C., read-out: Human Plasma T½ (converted). The method, then: (§1) B. Human and Rat Plasma Half-Life Assay
(§2) 50 μl, was removed at various times, like at 0, 1, 2, 3, 4, 8, 24, 32, 48, 56, 72 hours, mixed with 5 μL formic acid and 150 μL acetonitrile in a microcentrifuge tube, vertexed, and centrifuged for 10 minutes at 10K rpm. The supernatant was transferred to an injection vial and analyzed by LC-MS. The LC-MS system consisted of an API4000 mass spectrometer with an ESI probe. Positive ion mode and full scan detection were used. HPLC separation was carried out on a Luna 3μ C8 (2), 2×30 mm column with a gradient from 90% A to 90% B in 10 minutes at a flow rate of 0.3 ml/min. Buffer A was 1% formic acid in water and buffer B was 1% formic acid acetonitrile.

Series [2] in a line: Rat plasma half-life assay (LC-MS). It counts as in vitro ADME. The following applies: incubated at 37° C., read-out: Rat Plasma T½ (converted). How it is done:
as §1, §2

Take `CC[C@H](C)[C@H](NC(=O)[C@H](CCCCN)NC(=O)[C@H](CC(=O)O)NC(=O)[C@H](CCSC)NC(=O)[C@H](C)NC(=O)[C@@H](NC(=O)C1(NC(=O)[C@H](Cc2ccc(O)cc2)NC(=O)[C@H](CC(=O)O)NC(=O)[C@H](CO)NC(=O)[C@@H](NC(=O)[C@H](Cc2ccccc2)NC(=O)[C@@H](NC(=O)CNC(=O)[C@H](CCC(=O)O)NC(=O)CCc2ccc(O)cc2)[C@@H](C)O)[C@@H](C)CC)CCCCC1)[C@@H](C)CC)C(=O)N[C@@H](Cc1c[nH]cn1)C(=O)N[C@@H](CCC(N)=O)C(=O)N[C@@H](CCC(N)=O)C(=O)N[C@@H](CC(=O)O)C(=O)N[C@@H](Cc1ccccc1)C(=O)N[C@H](C(=O)N[C@@H](CC(N)=O)C(=O)N[C@@H](Cc1c[nH]c2ccccc12)C(=O)N[C@@H](CC(C)C)C(=O)N[C@@H](CC(C)C)C(=O)N[C@@H](C)C(=O)N[C@@H](CCC(N)=O)C(=O)N[C@@H](CCCCN)C(=O)NCC(=O)N[C@@H](CCCCN)C(=O)N[C@@H](CCCCN)C(=O)N[C@@H](CC(N)=O)C(=O)N[C@@H](CC(=O)O)C(=O)N[C@@H](Cc1c[nH]c2ccccc12)C(=O)N[C@@H](CCCCN)C(=O)N[C@@H](Cc1c[nH]cn1)C(=O)N[C@@H](CC(N)=O)C(=O)N[C@H](C(=O)N[C@H](C(=O)N[C@@H](CCC(N)=O)C(=O)O)[C@@H](C)O)[C@@H](C)CC)C(C)C` [Example 46, (4Hppa^2, A6c^11)hGIP(2-42)-OH]: the values for the half-life at 0.1 mg/mL in series [1] and in series [2] were 30.8 h and 11.9 h, respectively.
Taken in the same sequence, the figures for `CC[C@H](C)[C@H](NC(=O)[C@H](CCCCN)NC(=O)[C@H](CC(=O)O)NC(=O)[C@H](CCSC)NC(=O)C(C)(C)NC(=O)[C@@H](NC(=O)[C@H](CO)NC(=O)[C@H](Cc1ccc(O)cc1)NC(=O)[C@H](CC(=O)O)NC(=O)[C@H](CO)NC(=O)[C@@H](NC(=O)[C@H](Cc1ccccc1)NC(=O)[C@@H](NC(=O)CNC(=O)[C@H](CCC(=O)O)NC(=O)CCc1ccc(O)cc1)[C@@H](C)O)[C@@H](C)CC)[C@@H](C)CC)C(=O)N[C@@H](Cc1c[nH]cn1)C(=O)N[C@@H](CCC(N)=O)C(=O)N[C@@H](CCC(N)=O)C(=O)N[C@@H](CC(=O)O)C(=O)N[C@@H](Cc1ccccc1)C(=O)N[C@H](C(=O)N[C@@H](CC(N)=O)C(=O)N[C@@H](Cc1c[nH]c2ccccc12)C(=O)N[C@@H](CC(C)C)C(=O)N[C@@H](CC(C)C)C(=O)N[C@@H](C)C(=O)N[C@@H](CCC(N)=O)C(=O)N[C@@H](CCCCN)C(=O)NCC(=O)N[C@@H](CCCCN)C(=O)N[C@@H](CCCCN)C(=O)N[C@@H](CC(N)=O)C(=O)N[C@@H](CC(=O)O)C(=O)N[C@@H](Cc1c[nH]c2ccccc12)C(=O)N[C@@H](CCCCN)C(=O)N[C@@H](Cc1c[nH]cn1)C(=O)N[C@@H](CC(N)=O)C(=O)N[C@H](C(=O)N[C@H](C(=O)N[C@@H](CCC(N)=O)C(=O)O)[C@@H](C)O)[C@@H](C)CC)C(C)C` [Example 44, (4Hppa^2, Aib^13)hGIP(2-42)-OH)] were 48.8 h and 9.9 h.
Consider `CC[C@H](C)[C@H](NC(=O)[C@H](CO)NC(=O)[C@H](Cc1ccc(O)cc1)NC(=O)[C@H](CC(=O)O)NC(=O)[C@H](CO)NC(=O)C1(NC(C)=O)CCCCC1)C(=O)N[C@@H](C)C(=O)N[C@@H](CCSC)C(=O)N[C@@H](CC(=O)O)C(=O)N[C@@H](CCCCN)C(=O)N[C@H](C(=O)N[C@@H](Cc1c[nH]cn1)C(=O)N[C@@H](CCC(N)=O)C(=O)N[C@@H](CCC(N)=O)C(=O)N[C@@H](CC(=O)O)C(=O)N[C@@H](Cc1ccccc1)C(=O)N[C@H](C(=O)N[C@@H](CC(N)=O)C(=O)N[C@@H](Cc1c[nH]c2ccccc12)C(=O)N[C@@H](CC(C)C)C(=O)N[C@@H](CC(C)C)C(=O)N[C@@H](C)C(=O)N[C@@H](CCC(N)=O)C(=O)N[C@@H](CCCCN)C(=O)NCC(=O)N[C@@H](CCCCN)C(=O)N[C@@H](CCCCN)C(=O)N[C@@H](CC(N)=O)C(=O)N[C@@H](CC(=O)O)C(=O)N[C@@H](Cc1c[nH]c2ccccc12)C(=O)N[C@@H](CCCCN)C(=O)N[C@@H](Cc1c[nH]cn1)C(=O)N[C@@H](CC(N)=O)C(=O)N[C@H](C(=O)N[C@H](C(=O)N[C@@H](CCC(N)=O)C(=O)O)[C@@H](C)O)[C@@H](C)CC)C(C)C)[C@@H](C)CC` [Example 1, (Ac-A6c^7)hGIP(7-42)-OH], for which the results for the half-life at 0.1 mg/ml in series [1] and in series [2] were more than 72 h and 11 h, respectively.
The matching figures for `CCCCCC(=O)NCCC[C@H](NC(=O)[C@H](CCCCN)NC(=O)[C@H](CCC(N)=O)NC(=O)[C@H](C)NC(=O)[C@H](CC(C)C)NC(=O)[C@H](CC(C)C)NC(=O)[C@H](Cc1c[nH]c2ccccc12)NC(=O)[C@H](CC(N)=O)NC(=O)[C@@H](NC(=O)[C@H](Cc1ccccc1)NC(=O)[C@H](CC(=O)O)NC(=O)[C@H](CCC(N)=O)NC(=O)[C@H](CCC(N)=O)NC(=O)[C@H](Cc1c[nH]cn1)NC(=O)[C@@H](NC(=O)[C@H](CCCCN)NC(=O)[C@H](CC(=O)O)NC(=O)[C@H](CCSC)NC(=O)[C@H](C)NC(=O)[C@@H](NC(=O)[C@H](CO)NC(=O)[C@H](Cc1ccc(O)cc1)NC(=O)[C@H](CC(=O)O)NC(=O)[C@H](CO)NC(=O)C1(NC(=O)CCCCC)CCCCC1)[C@@H](C)CC)[C@@H](C)CC)C(C)C)C(=O)N[C@@H](CCCCN)C(=O)N[C@@H](CCCCN)C(=O)N[C@@H](CC(N)=O)C(=O)N[C@@H](CC(=O)O)C(=O)N[C@@H](Cc1c[nH]c2ccccc12)C(=O)N[C@@H](CCCCN)C(=O)N[C@@H](Cc1c[nH]cn1)C(=O)N[C@@H](CC(N)=O)C(=O)N[C@H](C(=O)N[C@H](C(=O)N[C@@H](CCC(N)=O)C(=O)O)[C@@H](C)O)[C@@H](C)CC` [Example 18, [CH3-(CH2)4-C(O)-A6c^7, Orn^31(N-C(O)-(CH2)4-CH3)]hGIP(7-42)-OH] (Hexanoyl-[Ac6c]SDYSIAMDKIHQQDFVNWLLAQK[Orn](Hexanoyl)KKNDWKHNITQ-OH): 13.8 h and 6.3 h.
Regarding `CCCCCCCCCC(=O)NCCC[C@H](NC(=O)[C@H](CCCCN)NC(=O)[C@H](CCCCN)NC(=O)CNC(=O)[C@H](CCCCN)NC(=O)[C@H](CCC(N)=O)NC(=O)[C@H](C)NC(=O)[C@H](CC(C)C)NC(=O)[C@H](CC(C)C)NC(=O)[C@H](Cc1c[nH]c2ccccc12)NC(=O)[C@H](CC(N)=O)NC(=O)[C@@H](NC(=O)[C@H](Cc1ccccc1)NC(=O)[C@H](CC(=O)O)NC(=O)[C@H](CCC(N)=O)NC(=O)[C@H](CCC(N)=O)NC(=O)[C@H](Cc1c[nH]cn1)NC(=O)[C@@H](NC(=O)[C@H](CCCCN)NC(=O)[C@H](CC(=O)O)NC(=O)[C@H](CCSC)NC(=O)[C@H](C)NC(=O)[C@@H](NC(=O)[C@H](CO)NC(=O)[C@H](Cc1ccc(O)cc1)NC(=O)[C@H](CC(=O)O)NC(=O)[C@H](CO)NC(=O)C1(N)CCCCC1)[C@@H](C)CC)[C@@H](C)CC)C(C)C)C(=O)N[C@@H](CC(=O)O)C(=O)N[C@@H](Cc1c[nH]c2ccccc12)C(=O)N[C@@H](CCCCN)C(=O)N[C@@H](Cc1c[nH]cn1)C(=O)N[C@@H](CC(N)=O)C(=O)N[C@H](C(=O)N[C@H](C(=O)N[C@@H](CCC(N)=O)C(=O)O)[C@@H](C)O)[C@@H](C)CC` [Example 20, [A6c^7, Orn^34(N-C(O)-(CH2)8-CH3)]hGIP(7-42)-OH] (H-[Ac6c]SDYSIAMDKIHQQDFVNWLLAQKGKK[Orn](Decanoyl)DWKHNITQ-OH), the half-life at 0.1 mg/mL was 9.4 h in series [1] and 13.9 h in series [2].
Take `CCCCCC(=O)NCCC[C@H](NC(=O)[C@H](CCCCN)NC(=O)[C@H](CCC(N)=O)NC(=O)[C@H](C)NC(=O)[C@H](CC(C)C)NC(=O)[C@H](CC(C)C)NC(=O)[C@H](Cc1c[nH]c2ccccc12)NC(=O)[C@H](CC(N)=O)NC(=O)[C@@H](NC(=O)[C@H](Cc1ccccc1)NC(=O)[C@H](CC(=O)O)NC(=O)[C@H](CCC(N)=O)NC(=O)[C@H](CCC(N)=O)NC(=O)[C@H](Cc1c[nH]cn1)NC(=O)[C@@H](NC(=O)[C@H](CCCCN)NC(=O)[C@H](CC(=O)O)NC(=O)[C@H](CCSC)NC(=O)[C@H](C)NC(=O)[C@@H](NC(=O)[C@H](CO)NC(=O)[C@H](Cc1ccc(O)cc1)NC(=O)[C@H](CC(=O)O)NC(=O)[C@H](CO)NC(=O)C1(NC(C)=O)CCCCC1)[C@@H](C)CC)[C@@H](C)CC)C(C)C)C(=O)N[C@@H](CCCCN)C(=O)N[C@@H](CCCCN)C(=O)N[C@@H](CC(N)=O)C(=O)N[C@@H](CC(=O)O)C(=O)N[C@@H](Cc1c[nH]c2ccccc12)C(=O)N[C@@H](CCCCN)C(=O)N[C@@H](Cc1c[nH]cn1)C(=O)N[C@@H](CC(N)=O)C(=O)N[C@H](C(=O)N[C@H](C(=O)N[C@@H](CCC(N)=O)C(=O)O)[C@@H](C)O)[C@@H](C)CC` [Example 16, [Ac-A6c^7, Orn^31(N-C(O)-(CH2)4-CH3)]hGIP(7-42)-OH] (Ac-[Ac6c]SDYSIAMDKIHQQDFVNWLLAQK[Orn](Hexanoyl)KKNDWKHNITQ-OH): the half-life at 0.1 mg/ml in series [1] is more than 50 h; in series [2], 30 h.
